# In patent publication US20080269326A1, “Use of 1-Phenyl-3-Dimethylamino-propane Compounds for Treating Neuropathic Pain” (GRUENENTHAL GmbH, priority 2007, published 2008):
# Columns and labels:
# [1] = system: cold allodynia in Bennett animals; test: Bennett model (chronic constriction injury), cold allodynia on 4° C. cold metal plate; type: in vivo, rat; details: for ED50: Rattus norvegicus
# Experimental: The effectiveness in treating neuropathic pain was investigated in the Bennett model (chronic constriction injury; Bennett and Xie, 1988, Pain 33: 87-107).
# (§1) Sprague-Dawley rats weighing 140-160 g are provided with four loose ligatures of the right sciatic nerve under nembutal narcosis. The animals develop a hypersensitivity in the paw innervated by the damaged nerve, which after a healing phase of one week is quantified over about four weeks by means of a 4° C. cold metal plate (cold allodynia). The animals are observed for two minutes on this plate and the number of retractive movements of the damaged paw are measured. The effect of the substance is determined with reference to the base value before application of the substance, at four different times over a period of one hour(15, 30, 45 and 60 minutes after application) and the resultant area under the curve (AUD) as well as the inhibition of cold allodynia at the individual measurement points is expressed in percent effect with reference to the vehicle control (AUD) and to the initial value (individual measurement points). The cohort size is n=10.
# [2] = system: tactile allodynia in Chung animals; test: Chung model (spinal nerve ligature), tactile allodynia, electronic von Frey; type: in vivo; details: Rattus norvegicus, ip, 0.5 h; rats, i.p., 30 minutes after administration
# Experimental: Spinal nerve ligatures according to Kim & Chung (1992 Pain 50, 355-363) were applied to the left L5/L6 spinal nerves of male Spraque-Dawley rats. Four to six days after the operation the tactile threshold baseline (withdrawal threshold) was measured on the ipsilateral and contralateral rear paw by an electronic von Frey anaesthesiometer (IITC Life Science, USA). After the test and measurement of the baseline, morphine, gabapentin and some of the aforementioned compounds used according to the invention were administered. The tactile withdrawal thresholds were measured 30 minutes after the administration. The results are expressed as ED50 and % maximal possible effect (% MPE) on the ipsilateral side, in which the baseline is taken as 0% and the withdrawal threshold of a control group is taken as 100% MPE.
# neuropathic pain = test: Tests of substances together with naloxone in treating neuropathic pain; type: in vivo
# [3] = system: cold allodynia in morphine-tolerant Bennett animals; test: Bennett model cold allodynia in morphine-tolerant animals; type: in vivo, rat
# Experimental: as §1
# The underlying question is the action of a test substance having a presumably opioid action mechanism in patients who are tolerant or treatment-resistant to morphine. […] The action of test substances in naive (non-morphine-tolerant) animals and morphine-tolerant animals is compared in Table 4. […] Morphine [10 mg/kg i.p.], Compound 9 [10 and 21.5 mg/kg i.p.], Compound 10 [0.46 and 1 mg/kg i.p.], Compound 4 [21.5 mg/kg i.p.] and Compound 11 [21.5 mg/kg i.p.] were tested analogously to Example 1.
# [4] = system: mechanical hyperalgesia in diabetic animals; test: Streptozotocin diabetic neuropathy, mechanical hyperalgesia (Randall and Sellito); type: in vivo, rat; details: diabetic rats; for ED50: Rattus norvegicus, ip, i.p., read-out: Mechanical hyperalgesia ED50 (95% confidence region)
# Experimental: Male Sprague-Dawley rats weighing 160-180 g received an intra-peritoneal injection of streptozotocin (75 mg/kg body weight) dissolved in pH 4.6 citrate buffer. One week later diabetic animals were identified by measuring the blood glucose level, and those with a blood glucose level of ≧17 mM were included in the study. Three and four weeks after administration of streptozotocin the mechanical reaction threshold was measured in diabetic animals by the method of Randall and Sellito (1957 Arch. Int. Pharmacody. […]:409-419) before (pre-test) and at various times after administration of the test substance or vehicle (post-test). […] The maximum pressure exerted on the rear paw was 250 g. The end point of the mechanical reaction threshold in grams was determined based on the reaction of the animal (withdrawal of the rear paw, vocalisation or evasive reaction). The size of the cohort in the individual dose stages was n=10. The maximum possible response in percent (% MPE=% of maximum possible effect) was calculated according to the formula:
# % MPE=(post-test−pre-test)/(250−pre-test)×100.
# ED50 values (dose at which 50% maximum inhibition occurred) were determined by regression analysis from the % MPE values at the time of the maximum effect.
compound,measurement,setting,value
"CC[C@](O)(c1cccc(OC)c1)[C@H](C)CN(C)C (racemic) [Compound 1, (2RS,3RS)-1-dimethylamino-3-(3-methoxyphenyl)-2-methylpentan-3-ol]",ED50,"[1]; ip, rats",11.1 mg/kg
same,ED50,[2],10.1 mg/kg
"C[C@H](CN(C)C)[C@@](C)(O)c1cccc(O)c1 (racemic) [Compound 5, (1RS,2RS)-3-(3-dimethylamino-1-hydroxy-1,2-dimethylpropyl)-phenol]",ED50,"[1]; ip, rats",15 mg/kg
"CC[C@](O)(c1cccc(C(F)F)c1)[C@H](C)CN(C)C (racemic) [Compound 8, (2RS,3RS)-3-(difluoromethylphenyl)-1-dimethylamino-2-methylpentan-3-ol]",Cold allodynia ED50,"[1]; rats, i.p.",17.1 mg/kg
"CC[C@@](O)(c1cccc(OC)c1)[C@@H](C)CN(C)C [Compound 2, (2S,3S)-1-dimethylamino-3-(3-methoxyphenyl)-2-methylpentan-3-ol]",ED50,"[1]; ip, rats",26 mg/kg
"CC[C@](O)(c1cccc(OC)c1)[C@H](C)CN(C)C [Compound 3, (2R,3R)-1-dimethylamino-3-(3-methoxyphenyl)-2-methylpentan-3-ol]",ED50,"[1]; ip, rats",9.2 mg/kg
"C[C@@H](CN(C)C)[C@](C)(O)c1cccc(O)c1 [Compound 6, (1S,2S)-3-(3-dimethylamino-1-hydroxy-1,2-dimethylpropyl)phenol]",ED50,"[1]; ip, rats",32.6 mg/kg
same,ED50,[2],4.65 mg/kg
"C[C@H](CN(C)C)[C@@](C)(O)c1cccc(O)c1 [Compound 7, (1R,2R)-3-(3-dimethylamino-1-hydroxy-1,2-dimethylpropyl)phenol]",ED50,"[1]; ip, rats",11.1 mg/kg
"CC[C@H](c1cccc(O)c1)[C@H](C)CN(C)C [Compound 10, (1S,2S)-3-(3-dimethylamino-1-ethyl-2-methylpropyl)phenol]",Cold allodynia (% AUD) Naïve animals,[1]; 0.46 mg/kg i.p.,29.0 % AUD
same,Cold allodynia (% AUD) Naïve animals,[1]; 1 mg/kg i.p.,42.7 % AUD
same,Cold allodynia (% AUD) Naïve animals,[1]; 2.15 mg/kg i.p.,59.2 % AUD
same,ED50,"[1]; ip, rats",1.2 mg/kg
same,ED50,[2],1.5 mg/kg
same,effectiveness in treating neuropathic pain with naloxone,neuropathic pain,effective
same,Cold allodynia (% AUD) Morphine-tolerant animals,[3]; 0.46 mg/kg i.p.,22.9 % AUD
same,Cold allodynia (% AUD) Morphine-tolerant animals,[3]; 1 mg/kg i.p.,39.9 % AUD
same,Cold allodynia (% AUD) Morphine-tolerant animals,[3]; 2.15 mg/kg i.p.,13.0 % AUD
"CC(CN(C)C)=C(C)c1cccc(O)c1 [Compound 14, 3-(3-dimethylamino-1,2-dimethylpropenyl)-phenol]",ED50,"[1]; ip, rats",3.6 mg/kg
"NCC1(CC(=O)O)CCCCC1 [Gabapentin, reference compound]",ED50,"[1]; po, rats",214 mg/kg
same,ED50,[2],92.6 mg/kg
same,ED50,[4],225 mg/kg
same,Mechanical hyperalgesia Maximum effect in % MPE,[4]; 464 mg/kg i.p.,80% (464 mg/kg) % MPE
"CN1CC[C@]23c4c5ccc(O)c4O[C@H]2[C@@H](O)C=C[C@H]3[C@H]1C5 [Morphine, reference compound]",Cold allodynia (% AUD) Naïve animals,[1]; 10 mg/kg i.p.,78.6 % AUD
same,ED50,"[1]; ip, rats",7.1 mg/kg
same,ED50,[2],4.6 mg/kg
same,ED50,[4],3 mg/kg
same,Mechanical hyperalgesia Maximum effect in % MPE,[4]; 10 mg/kg i.p.,89% (10 mg/kg) % MPE
same,effectiveness in treating neuropathic pain with naloxone,neuropathic pain,effective
same,Cold allodynia (% AUD) Morphine-tolerant animals,[3]; 10 mg/kg i.p.,−22.0 % AUD
same,anti-allodynic action (cold allodynia) in morphine-tolerant animals,[3]; i.p.,no longer exhibits any effect
COc1cccc(C2(O)CCCCC2CN(C)C)c1 (stereo not drawn) [Tramadol],ED50,[4],9.2 mg/kg
same,Mechanical hyperalgesia Maximum effect in % MPE,[4]; 21.5 mg/kg i.p.,86% (21.5 mg/kg) % MPE
